Source: patent US20250319191A1, “PHARMACEUTICAL COMPOSITION COMPRISING HYALURONIC ACID COMPLEX FOR PREVENTION OR TREATMENT OF SKIN DISEASE” (AJOU UNIVERSITY INDUSTRY-ACADEMIC COOPERATION FOUNDATION, priority 2021, published 2025)

Target: recombinant TLR4 (Homo sapiens, UniProt O00206)
Assay: Interaction with TLR4 by surface plasmon resonance
Type: binding
Settings: 0-800 μg/ml, 10 μl/min, 120 seconds
Text: In order to immobilize a target receptor on an assay chip, the receptor was immobilized on the chip by flowing recombinant TLR4 while flowing an EDC/NHS solvent. Thereafter, ethanolamine was flowed to remove weakly immobilized or non-immobilized receptor on the chip.

Chain of recombinant TLR4 (O00206 24-839, species assumed): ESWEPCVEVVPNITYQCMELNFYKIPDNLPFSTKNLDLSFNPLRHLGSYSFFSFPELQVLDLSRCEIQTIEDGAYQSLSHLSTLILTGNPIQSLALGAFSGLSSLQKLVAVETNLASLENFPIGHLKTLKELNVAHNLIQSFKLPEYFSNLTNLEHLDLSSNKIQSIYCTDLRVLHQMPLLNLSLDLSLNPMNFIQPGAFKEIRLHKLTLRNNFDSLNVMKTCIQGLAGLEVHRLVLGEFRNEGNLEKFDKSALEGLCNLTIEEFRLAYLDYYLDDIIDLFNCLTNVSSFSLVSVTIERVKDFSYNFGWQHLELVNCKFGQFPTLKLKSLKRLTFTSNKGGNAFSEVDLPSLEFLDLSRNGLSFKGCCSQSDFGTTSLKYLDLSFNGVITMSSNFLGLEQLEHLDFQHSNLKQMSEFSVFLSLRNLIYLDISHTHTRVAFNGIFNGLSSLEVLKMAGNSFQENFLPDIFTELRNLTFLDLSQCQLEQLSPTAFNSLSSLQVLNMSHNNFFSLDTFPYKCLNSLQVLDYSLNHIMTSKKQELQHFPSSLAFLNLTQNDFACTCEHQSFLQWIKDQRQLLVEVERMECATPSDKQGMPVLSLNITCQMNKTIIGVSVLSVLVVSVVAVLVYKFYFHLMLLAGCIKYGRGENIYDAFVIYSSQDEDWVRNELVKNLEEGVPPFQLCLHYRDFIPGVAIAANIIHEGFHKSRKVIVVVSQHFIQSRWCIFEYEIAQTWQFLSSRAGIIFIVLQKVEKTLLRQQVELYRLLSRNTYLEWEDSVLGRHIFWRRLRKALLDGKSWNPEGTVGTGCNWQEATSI

hyaluronic acid [10 kDa free HA]
change in response unit (RU) value: the increase in RU value identified in the HACN group was not observed
